Laboratory results as given in US20160046618A1, “Cyclopropyl Fused Thiazin-2-Amine Compounds as Beta-Secretase Inhibitors and Methods of Use” (AMGEN INC., priority 2014, published 2016).

Tests used:
human recombinant BACE1 = human recombinant BACE1 (Homo sapiens (Human), UniProt P56817); test: In vitro enzymatic BACE1 FRET assay; assay type: biochemical; details: read-out: IC50 IP (μM) BACE1 enzyme
How it was run: (§1)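 Ni-NTA-purified recombinant protease incubated with compound; reaction started with 50 nM FRET peptide substrate (fluorophore/quencher flanking the BACE cleavage site) and run 1 h. Stopped with Tris buffer raising pH to neutral; fluorescence read at ex 488/em 590 nm.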

Recombinant Cat D = Recombinant Cat D (Homo sapiens (Human), UniProt P07339); test: In vitro enzymatic Cathepsin D (Cat D) FRET assay; assay type: biochemical; details: read-out: IC50 IP (μM) CatD
Recombinant Cat D, sequence (P07339 65-412): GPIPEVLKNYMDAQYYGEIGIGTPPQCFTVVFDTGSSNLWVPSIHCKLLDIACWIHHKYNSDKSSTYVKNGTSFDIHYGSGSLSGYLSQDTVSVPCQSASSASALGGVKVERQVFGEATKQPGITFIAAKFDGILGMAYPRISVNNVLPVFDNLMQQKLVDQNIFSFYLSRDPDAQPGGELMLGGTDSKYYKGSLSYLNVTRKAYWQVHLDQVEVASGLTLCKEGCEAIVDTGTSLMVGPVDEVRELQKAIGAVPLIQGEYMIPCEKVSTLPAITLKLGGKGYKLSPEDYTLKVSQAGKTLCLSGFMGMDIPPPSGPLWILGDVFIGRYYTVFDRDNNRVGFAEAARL
How it was run: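 CHO-expressed enzyme; buffer 0.05 M citrate pH 3.5, 5 mM CHAPS, 10% DMSO final. Start with FRET substrate 20 nM, 1 h incubation, Tris stop (pH to neutral), fluorescence ex 500 nm/em 580 nm.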

human recombinant BACE2 = human recombinant BACE2 (Homo sapiens (Human), UniProt Q9Y5Z0); test: In vitro enzymatic BACE2 FRET assay; assay type: biochemical; details: read-out: IC50 IP (μM) BACE2 enzyme
human recombinant BACE2, sequence (Q9Y5Z0 63-518): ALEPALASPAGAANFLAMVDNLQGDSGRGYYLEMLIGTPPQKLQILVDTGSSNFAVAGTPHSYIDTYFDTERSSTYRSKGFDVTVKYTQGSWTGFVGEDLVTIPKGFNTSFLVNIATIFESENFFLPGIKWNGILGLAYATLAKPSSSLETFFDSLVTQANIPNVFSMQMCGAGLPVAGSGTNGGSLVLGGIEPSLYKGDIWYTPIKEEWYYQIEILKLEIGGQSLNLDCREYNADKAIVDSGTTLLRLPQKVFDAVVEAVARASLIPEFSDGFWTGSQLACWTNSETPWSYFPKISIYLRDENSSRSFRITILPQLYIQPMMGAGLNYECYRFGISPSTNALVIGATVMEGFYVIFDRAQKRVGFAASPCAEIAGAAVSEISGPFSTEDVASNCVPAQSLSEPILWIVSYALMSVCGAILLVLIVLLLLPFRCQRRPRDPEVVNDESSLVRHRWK
How it was run: as §1

[1] = test system: Aβ40 in conditioned medium of cells stably expressing Amyloid Precursor Protein (APP); test: In vitro BACE-1 cell-based assay (Aβ40 sandwich ELISA); details: read-out: IC50 IP (μM) BACE1 cell
How it was run: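 APP-expressing cells treated 24 h at 37 °C with compound in 10-point dose response (top 100 μM or 10 μM, 0.1% DMSO final). Secreted Aβ40 in conditioned medium quantified by sandwich ELISA (pAb40 capture, biotinylated 6E10 detection, time-resolved europium fluorescence); IC50 from percent inhibition versus concentration.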

human recombinant BACE1, sequence (P56817 46-501): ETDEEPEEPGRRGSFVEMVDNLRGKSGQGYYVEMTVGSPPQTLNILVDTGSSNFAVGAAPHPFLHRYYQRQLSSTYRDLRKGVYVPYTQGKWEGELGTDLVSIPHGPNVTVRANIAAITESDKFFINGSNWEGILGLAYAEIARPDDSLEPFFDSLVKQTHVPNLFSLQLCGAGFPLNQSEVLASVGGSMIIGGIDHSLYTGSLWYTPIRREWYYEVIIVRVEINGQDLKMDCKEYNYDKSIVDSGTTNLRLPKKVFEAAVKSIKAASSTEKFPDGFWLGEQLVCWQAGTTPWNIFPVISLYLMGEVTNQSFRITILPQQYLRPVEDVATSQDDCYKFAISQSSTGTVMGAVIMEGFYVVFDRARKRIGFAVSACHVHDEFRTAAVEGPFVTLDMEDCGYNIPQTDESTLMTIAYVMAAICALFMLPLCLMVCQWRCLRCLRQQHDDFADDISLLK

| Compound | IC50 (human recombinant BACE1) | IC50 (Recombinant Cat D) | IC50 (human recombinant BACE2) | IC50 [1] |
| --- | --- | --- | --- | --- |
| COC[C@]12C[C@H]1[C@@](C)(c1cc(NC(=O)c3cnc(OCc4ncco4)cn3)cc(C)c1F)N=C(N)S2 [Example 1071, N-(3-((1S,5S,6S)-3-amino-1-(methoxymethyl)-5-methyl-2-thia-4-azabicyclo[4.1.0]hept-3-en-5-yl)-4-fluoro-5-methylphenyl)-5-(oxazol-2-ylmethoxy)pyrazine-2-carboxamide] | 0.000768 µM | 1430 µM | 0.0304 µM | 0.00025 µM |
| Cc1cc(NC(=O)c2cnc(OCc3ncco3)cn2)cc([C@@]2(C)N=C(N)S[C@@]3(C(F)F)C[C@@H]23)c1F [Example 1074, N-(3-((1S,5S,6S)-3-amino-1-(difluoromethyl)-5-methyl-2-thia-4-azabicyclo[4.1.0]hept-3-en-5-yl)-4-fluoro-5-methylphenyl)-5-(oxazol-2-ylmethoxy)pyrazine-2-carboxamide] | 0.00057 µM | 1330 µM | 0.0167 µM | 0.000489 µM |
| Cc1noc(COc2cnc(C(=O)Nc3cc(C)c(F)c([C@@]4(C)N=C(N)S[C@@]5(C(F)F)C[C@@H]45)c3)cn2)n1 [Example 1075, N-(3-((1S,5S,6S)-3-amino-1-(difluoromethyl)-5-methyl-2-thia-4-azabicyclo[4.1.0]hept-3-en-5-yl)-4-fluoro-5-methylphenyl)-5-((3-methyl-1,2,4-oxadiazol-5-yl)methoxy)pyrazine-2-carboxamide] | 0.00152 µM | 1250 µM | 0.198 µM | 0.00153 µM |

Continued, values first:

| IC50 (human recombinant BACE1) | IC50 (Recombinant Cat D) | IC50 (human recombinant BACE2) | IC50 [1] | Compound |
| --- | --- | --- | --- | --- |
| 0.00032 µM | 143 µM | 0.00983 µM | 0.000345 µM | C#CCOc1cnc(C(=O)Nc2cc(C)c(F)c([C@@]3(C)N=C(N)S[C@@]4(C(F)F)C[C@@H]34)c2)cn1 [Example 1072, N-(3-((1S,5S,6S)-3-amino-1-(difluoromethyl)-5-methyl-2-thia-4-azabicyclo[4.1.0]hept-3-en-5-yl)-4-fluoro-5-methylphenyl)-5-(prop-2-yn-1-yloxy)pyrazine-2-carboxamide] |
| 0.000842 µM | 1300 µM | 0.0515 µM | 0.00323 µM | Cc1cc(NC(=O)c2cnc(OCC(F)(F)F)cn2)cc([C@@]2(C)N=C(N)S[C@@]3(C(F)F)C[C@@H]23)c1F [Example 1073, N-(3-((1S,5S,6S)-3-amino-1-(difluoromethyl)-5-methyl-2-thia-4-azabicyclo[4.1.0]hept-3-en-5-yl)-4-fluoro-5-methylphenyl)-5-(2,2,2-trifluoroethoxy)pyrazine-2-carboxamide] |
